Source: patent US20150051144A1, “COMPOUNDS FOR THE TREATMENT OF DYSLIPIDEMIA AND OTHER DISEASES” (Cadila Healthcare Limited, priority 2012, published 2015)

Biological target: PCSK9 (Homo sapiens, UniProt Q8NBP7)
Assay: PCSK9-LDLR in vitro Binding Assay (solid phase, ELISA readout)
Conditions: for inhibition at 10 µM: test compound concentration 10 μM; for inhibition at 100 µM: test compound concentration 100 μM
Procedure: The PCSK9-LDLR in vitro Binding Assay is a quantitative solid phase binding assay between PCSK9 and recombinant LDLR. Plates were pre-coated with a recombinant LDLR-AB domain, which binds PCSK9. Test compound at different concentration was added to the PCSK9 and added to LDLR immobilized on the wells. The amount of bound PCSK9 is measured by binding it with biotinylated anti-His-tag monoclonal antibody, followed by binding with horseradish peroxidase conjugated streptavidin substrate. The color was quantified by ELISA reader at […] which reflects the relative amount of PCSK9 that binds to LDLR in presence and absence of the inhibitor.

Sequence of PCSK9 (Q8NBP7 153-692): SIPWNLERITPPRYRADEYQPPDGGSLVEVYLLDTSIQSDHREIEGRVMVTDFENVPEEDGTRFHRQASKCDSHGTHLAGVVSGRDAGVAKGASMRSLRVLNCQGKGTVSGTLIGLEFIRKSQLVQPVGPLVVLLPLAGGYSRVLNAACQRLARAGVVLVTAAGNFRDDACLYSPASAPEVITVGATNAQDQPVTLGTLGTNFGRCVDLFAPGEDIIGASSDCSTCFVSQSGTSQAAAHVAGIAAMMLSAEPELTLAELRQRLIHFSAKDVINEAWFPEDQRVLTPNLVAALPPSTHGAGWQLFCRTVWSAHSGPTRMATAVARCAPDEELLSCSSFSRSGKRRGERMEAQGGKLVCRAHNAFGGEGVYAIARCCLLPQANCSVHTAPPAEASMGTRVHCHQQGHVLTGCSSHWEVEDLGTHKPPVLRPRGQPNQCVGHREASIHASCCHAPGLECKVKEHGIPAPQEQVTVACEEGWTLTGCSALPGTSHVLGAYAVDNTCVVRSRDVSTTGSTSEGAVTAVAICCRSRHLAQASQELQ
Sequence of PCSK9 (Q8NBP7 31-152 partner limits assumed): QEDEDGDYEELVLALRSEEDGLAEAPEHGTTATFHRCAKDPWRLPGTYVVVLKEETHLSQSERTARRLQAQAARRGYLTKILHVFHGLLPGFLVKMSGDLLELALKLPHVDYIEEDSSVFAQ

Structure (SMILES) | inhibition at 10 µM [%] | inhibition at 100 µM [%]
CN1CCN(C(=O)COc2ccc(C(Cc3ccccc3)=NOCc3ccc(C(F)(F)F)cc3)cc2)CC1 [Example 6, 1-(4-Methylpiperazin-1-yl)-2-(4-(2-phenyl-1-(((4-(trifluoromethyl)benzyl)oxy)imino)ethyl)phenoxy)ethanone] | 49 | 
CC(C)(C)OC(=O)N1CCC(ONC(=O)COc2ccc(C(Cc3ccccc3)=NOCc3ccc(C(F)(F)F)cc3)cc2)CC1 [Example 8, tert-Butyl 4-((2-(4-(2-phenyl-1-(((4-(trifluoromethyl)benzyl)oxy)imino)ethyl)phenoxy)acetamido)oxy)piperidine-1-carboxylate] | 50 | 52
CCC(=NOCc1ccc(C(F)(F)F)cc1)c1ccc(OCC(=O)N(CCO)c2ccccc2)cc1 [Example 20, N-(2-Hydroxyethyl)-N-phenyl-2-(4-(1-(((4-(trifluoromethyl)benzyl)oxy)imino)propyl)phenoxy)acetamide] | 20 | 54
Cc1ccc(CON=C(Cc2ccccc2)c2ccc(OCC(=O)N3CCOCC3)c(C)c2)cc1 [Example 26, 2-(2-Methyl-4-(1-(((4-methylbenzyl)oxy)imino)-2-phenylethyl)phenoxy)-1-morpholinoethanone] | 32 | 44
COc1ccc(CON=C(Cc2ccccc2)c2ccc(OCC(=O)N3CCCCC3)c(C)c2)cc1 [Example 40, 2-(4-(1-(((4-methoxybenzyl)oxy)imino)-2-phenylethyl)-2-methylphenoxy)-1-(piperidin-1-yl)ethanone] | 24 | 50
CCC(=NOCCn1ccc2ccccc21)c1ccc(OCC(=O)N2CCN(C)CC2)cc1 [Example 46, 2-(4-(1-((2-(1H-indol-1-yl)ethoxy)imino)propyl)phenoxy)-1-(4-methylpiperazin-1-yl)ethanone] | 27 | 59
CCC(=NOCc1nc(-c2ccccc2)oc1C)c1ccc(OCC(=O)N2CCN(C)CC2)cc1 [Example 50, 2-(4-(1-(((5-methyl-2-phenyloxazol-4-yl)methoxy)imino)propyl)phenoxy)-1-(4-methylpiperazin-1-yl)ethanone] | 22 | 42
O=C(COc1ccc2c(c1)CCCC2=NOCc1ccc(C(F)(F)F)cc1)N1CCCCC1 [Example 54, 1-(piperidin-1-yl)-2-((5-(((4-(trifluoromethyl)benzyl)oxy)imino)-5,6,7,8-tetrahydronaphthalen-2-yl)oxy)ethanone] | 40 | 62
CN1CCN(C(=O)COc2ccc3c(c2)CCCC3=NOCc2ccc(C(F)(F)F)cc2)CC1 [Example 56, 1-(4-methylpiperazin-1-yl)-2-((5-(((4-(trifluoromethyl)benzyl)oxy)imino)-5,6,7,8-tetrahydronaphthalen-2-yl)oxy)ethanone] | 63 | 66
O=C(COc1ccc2c(c1)CCCC2=NOCc1ccc(C(F)(F)F)cc1)NN1CCOCC1 [Example 57, N-morpholino-2-((5-(((4-(trifluoromethyl)benzyl)oxy)imino)-5,6,7,8-tetrahydronaphthalen-2-yl)oxy)acetamide] | 50 | 59
O=C(COc1ccc2c(c1)CCCC2=NOCc1ccc(C(F)(F)F)cc1)NN1CCCCC1 [Example 58, N-(piperidin-1-yl)-2-((5-(((4-(trifluoromethyl)benzyl)oxy)imino)-5,6,7,8-tetrahydronaphthalen-2-yl)oxy)acetamide] | 50 | 53
O=C(COc1ccc2c(c1)CCCC2=NOCc1ccc(C(F)(F)F)cc1)Nc1nc2cc(Cl)ccc2o1 [Example 59, N-(5-chlorobenzo[d]oxazol-2-yl)-2-((5-(((4-(trifluoromethyl)benzyl)oxy)imino)-5,6,7,8-tetrahydronaphthalen-2-yl)oxy)acetamide] | 49 | 79
Cc1ccnc(NC(=O)COc2ccc3c(c2)CCCC3=NOCc2ccc(C(F)(F)F)cc2)n1 [Example 60, N-(4-methylpyrimidin-2-yl)-2-((5-(((4-(trifluoromethyl)benzyl)oxy)imino)-5,6,7,8-tetrahydronaphthalen-2-yl)oxy)acetamide] | 61 | 91
CC(C)(C)OC(=O)N1CCC(ONC(=O)COc2ccc3c(c2)CCCC3=NOCc2ccc(C(F)(F)F)cc2)CC1 [Example 62, tert-butyl 4-((2-((5-(((4-(trifluoromethyl)benzyl)oxy)imino)-5,6,7,8-tetrahydronaphthalen-2-yl)oxy)acetamido)oxy)piperidine-1-carboxylate] | 57 | 73
[C-]#[N+]c1ccccc1NC(=O)COc1ccc2c(c1)CCCC2=NOCc1ccc(C(F)(F)F)cc1 [Example 63, N-(2-isocyanophenyl)-2-((5-(((4-(trifluoromethyl)benzyl)oxy)imino)-5,6,7,8-tetrahydronaphthalen-2-yl)oxy)acetamide] | 48 | 58

The remaining lines, values ahead:

inhibition at 10 µM [%] | inhibition at 100 µM [%] | Structure (SMILES)
50 | 51 | Cc1cc(C(Cc2ccccc2)=NOCc2ccc(C(F)(F)F)cc2)ccc1OCC(=O)N1CCOCC1 [Example 1, 2-(2-Methyl-4-(2-phenyl-1-(((4-(trifluoromethyl)benzyl)oxy)imino)ethyl)phenoxy)-1-morpholinoethanone]
32 | 38 | Cc1cc(C(Cc2ccccc2)=NOCc2ccc(C(F)(F)F)cc2)ccc1OCC(=O)NCC(=O)N1CCOCC1 [Example 3, 2-(2-Methyl-4-(2-phenyl-1-(((4-(trifluoromethyl)benzyl)oxy)imino)ethyl)phenoxy)-N-(2-morpholino-2-oxoethyl)acetamide]
31 | 62 | O=C(COc1ccc(C(Cc2ccccc2)=NOCc2ccc(C(F)(F)F)cc2)cc1)N1CCOCC1 [Example 4, 1-Morpholino-2-(4-(2-phenyl-1-(((4-(trifluoromethyl)benzyl)oxy)imino)ethyl)phenoxy)ethanone]
53 | 33 | O=C(COc1ccc(C(Cc2ccccc2)=NOCc2ccc(C(F)(F)F)cc2)cc1)NN1CCOCC1 [Example 9, N-Morpholino-2-(4-(2-phenyl-1-(((4-(trifluoromethyl)benzyl)oxy)imino)ethyl)phenoxy)acetamide]
21 | 53 | Cc1cc(C(Cc2ccsc2)=NOCc2ccc(C(F)(F)F)cc2)ccc1OCC(=O)N1CCOCC1 [Example 10, 2-(2-Methyl-4-(2-(thiophen-3-yl)-1-(((4-(trifluoromethyl)benzyl)oxy)imino)ethyl)phenoxy)-1-morpholinoethanone]
26 | 57 | CC(=NOCc1ccc(C(F)(F)F)cc1)c1ccc(OCC(=O)N2CCOCC2)cc1 [Example 11, 1-Morpholino-2-(4-(1-(((4-(trifluoromethyl)benzyl)oxy)imino)ethyl)phenoxy)ethanone]
52 | 54 | CCC(=NOCc1ccc(C(F)(F)F)cc1)c1ccc(OCC(=O)N2CCOCC2)cc1 [Example 13, 1-Morpholino-2-(4-(1-(((4-(trifluoromethyl)benzyl)oxy)imino)propyl)phenoxy)ethanone]
32 | 64 | CCC(=NOCc1ccc(C(F)(F)F)cc1)c1ccc(OCC(=O)N2CCCCC2)cc1 [Example 15, 1-(Piperidin-1-yl)-2-(4-(1-(((4-(trifluoromethyl)benzyl)oxy)imino)propyl)phenoxy)ethanone]
35 | 60 | CCC(=NOCc1ccc(C(F)(F)F)cc1)c1ccc(OCC(=O)Nc2cc(C)nn2C)cc1 [Example 22, N-(1,3-Dimethyl-1H-pyrazol-5-yl)-2-(4-(1-(((4-(trifluoromethyl)benzyl)oxy)imino)propyl)phenoxy)acetamide]
27 | 40 | O=C(COc1ccc(C(Cc2ccccc2)=NOCc2ccccc2)cc1)N1CCOCC1 [Example 25, 2-(4-(1-((Benzyloxy)imino)-2-phenylethyl)phenoxy)-1-morpholinoethanone]
25 | 46 | Cc1cc(C(Cc2ccccc2)=NOCc2ccc(OC(F)(F)F)cc2)ccc1OCC(=O)N1CCOCC1 [Example 34, 2-(2-methyl-4-(2-phenyl-1-(((4-(trifluoromethoxy)benzyl)oxy)imino)ethyl)phenoxy)-1-morpholinoethanone]
26 | 42 | O=C(COc1ccc(C(Cc2ccccc2)=NOCc2ccc(OC(F)(F)F)cc2)cc1)N1CCOCC1 [Example 35, 1-morpholino-2-(4-(2-phenyl-1-(((4-(trifluoromethoxy)benzyl)oxy)imino)ethyl)phenoxy)ethanone]
22 | 40 | COc1ccc(CON=C(Cc2ccccc2)c2ccc(OCC(=O)N3CCOCC3)c(C)c2)cc1 [Example 36, 2-(4-(1-(((4-methoxybenzyl)oxy)imino)-2-phenylethyl)-2-methylphenoxy)-1-morpholinoethanone]
